Read-outs that look alike come from different tables or passages of the source.
Legend:
[1] = serum calcitonin in a human; assay type: in vivo; details: single oral doses 20-400 mg
Description: A range of single oral doses was used to assess safety, tolerance, and changes in primary hyperparathyroidism markers (e.g., plasma concentrations of parathyroid hormone and ionized serum calcium) and of serum calcitonin.

net positive charge = assay type: physicochemical

Structure (SMILES)	serum calcitonin in human [1]	Net (+) Charge (Table 1) (net positive charge)	net positive charge (net positive charge)	net positive charge (net positive charge; pH 7.3)
COc1cccc([C@@H](C)NCCCc2ccccc2Cl)c1 [NPS R-568, (R)-(+)-N-[3-(2-chlorophenyl)propyl]-amethyl-α-3-methoxybenzylamine]	no apparent change in serum calcitonin			
NC[C@@H]1O[C@H](O[C@H]2[C@@H](O)[C@H](O[C@@H]3[C@@H](O)[C@H](N)C[C@H](N)[C@H]3O[C@H]3O[C@H](CN)[C@@H](O)[C@H](O)[C@H]3N)O[C@@H]2CO)[C@H](N)[C@@H](O)[C@@H]1O [Neomycin]		+6	+6	+6

Reference: patent US5858684A, “Method of screening calcium receptor-active molecules” (priority 1995, dated 1999)
